Experimental findings from patent publication US6903113B2, “Urea substituted imidazopyridines” (3M Innovative Properties Company, priority 2000, dated 2005) are described below.

What is called melting point is the temperature of the solid-liquid transition.

Where a name gives a salt, the structure may show the parent alone.

One data set concerns interferon (α). As to the kind of experiment: Cytokine Induction in Human Cells: interferon (α) by ELISA. The data set is classed as cell-based. Set-up: key to Lowest Effective Concentration Interferon: A “*” indicates that no induction was seen at any of the tested concentrations. The settings on record: human PBMC, 18 to 24 hours incubation, compounds generally tested at 30-0.014 μM; for minimal effective concentration: read-out: Lowest Effective Concentration Interferon. The text has this:
(§1) An in vitro human blood cell system is used to assess cytokine induction. Activity is based on the measurement of interferon and tumor necrosis factor (α) (IFN and TNF, respectively) secreted into culture media as described by Testerman et. al. In “Cytokine Induction by the Immunomodulators Imiquimod and S-27609”, Journal of Leukocyte Biology, 58, 365-372 (September, 1995).
(§2) Whole blood from healthy human donors is collected by venipuncture into EDTA vacutainer tubes. Peripheral blood mononuclear cells (PBMC) are separated from whole blood by density gradient centrifugation using Histopaque®-1077. Blood is diluted 1:1 with Dulbecco's Phosphate Buffered Saline (DPBS) or Hank's Balanced Salts Solution (HBSS). The PBMC layer is collected and washed twice with DPBS or HBSS and resuspended at 4×10^6 cells/mL in RPMI complete. The PBMC suspension is added to 48 well flat bottom sterile tissue culture plates (Costar, Cambridge, Mass. or Becton Dickinson Labware, Lincoln Park, N.J.) containing an equal volume of RPMI complete media containing test compound.
(§3) The compounds are solubilized in dimethyl sulfoxide (DMSO). The DMSO concentration should not exceed a final concentration of 1% for addition to the culture wells. The compounds are generally tested at concentrations ranging from 30-0.014 μM.
(§4) The solution of test compound is added at 60 μM to the first well containing RPMI complete and serial 3 fold dilutions are made in the wells. The PBMC suspension is then added to the wells in an equal volume, bringing the test compound concentrations to the desired range (30-0.014 μM). The final concentration of PBMC suspension is 2×10^6 cells/mL. The plates are covered with sterile plastic lids, mixed gently and then incubated for 18 to 24 hours at 37° C. in a 5% carbon dioxide atmosphere.
(§5) Following incubation the plates are centrifuged for 10 minutes at 1000 rpm (˜200×g) at 4° C. The cell-free culture supernatant is removed with a sterile polypropylene pipet and transferred to sterile polypropylene tubes. Samples are maintained at −30 to −70° C. until analysis. The samples are analyzed for interferon (α) by ELISA and for tumor necrosis factor (α) by ELISA or IGEN Assay
Interferon (α) concentration is determined by ELISA using a Human Multi-Species kit from PBL Biomedical Laboratories, New Brunswick, N.J. Results are expressed in pg/mL.
(§6) The table below lists the lowest concentration found to induce interferon and the lowest concentration found to induce tumor necrosis factor for each compound.
(An ELISA detects its analyte on a solid surface through an enzyme-linked reagent.)

Data set [1] concerns tumor necrosis factor (α). Description: Cytokine Induction in Human Cells: tumor necrosis factor (α) by ELISA or IGEN Assay. The data set is classed as cell-based. Set-up: key to Lowest Effective Concentration Tumor Necrosis Factor: A “*” indicates that no induction was seen at any of the tested concentrations. As to conditions: human PBMC, 18 to 24 hours incubation, compounds generally tested at 30-0.014 μM; for minimal effective concentration: read-out: Lowest Effective Concentration Tumor Necrosis Factor.
Text: as §1, §2, §3, §4, §5
Tumor necrosis factor (α) (TNF) concentration is determined using ELISA kits available from Biosource International, Camarillo, Calif. Alternately, the TNF concentration can be determined by Origen® M-Series Immunoassay and read on an IGEN M-8 analyzer from IGEN International, Gaithersburg, Md. The immunoassay uses a human TNF capture and detection antibody pair from Biosource International, Camarillo, Calif. Results are expressed in pg/mL.
as §6

As for `CCOCc1nc2c(N)nc(C)cc2n1CCCCNC(=O)N1CCOCC1` (as salt: salt) [Example 10, N-{4-[4-amino-2-(ethoxymethyl)-6-methyl-1H-imidazo[4,5-c]pyridin-1-yl]butyl}morpholin-4-ylcarboxamide], the melting point was 156.5 to 159.5 °C.

For the molecule `CCOCc1nc2c(N)nc(C)cc2n1CCCCNC(=O)Nc1cccc(C#N)c1` [Example 41], the minimal effective concentration was found to be 10 µM with interferon (α) and 30 µM in data set [1].

On to `Cc1nc(N)c2ncn(CCCCNC(=O)N3CCOCC3)c2c1C` [Example 11, N-[4-(4-amino-6,7-dimethyl-1H-imidazo[4,5-c]pyridin-1-yl)butyl]morpholin-4-ylcarboxamide], for which the melting point was 163.7 to 167 °C.

In the case of `Cc1nc(N)c2nc(C)n(CCCNC(=O)N3CCOCC3)c2c1C` [Example 13, N-[3-(4-amino-2,6,7-trimethyl-1H-imidazo[4,5-c]pyridin-1-yl)propyl]morpholin-4-ylcarboxamide], the melting point is 128.9 to 129.7 °C.

Turning to `CCOCc1nc2c(N)nc(C)cc2n1CCCCNC(=O)Nc1ccc(OC)cc1OC` [Example 45], the minimal effective concentration worked out at 3.33 µM in the data set with interferon (α) and 10 µM in data set [1].

Consider `CCOCc1nc2c(N)nc(C)cc2n1CCCCNC(=O)NCC(=O)OCC` [Example 40], for which the minimal effective concentration with interferon (α) came to 3.33 µM. The “Lowest Effective Concentration Tumor Necrosis Factor” value in data set [1] is recorded as “*”.

On to `CCCCNC(=O)NCCCCn1cnc2c(N)nc(C)c(C)c21` [Example 18], for which the “Lowest Effective Concentration Interferon” value in the data set on interferon (α) is recorded as “*”. Besides, the “Lowest Effective Concentration Tumor Necrosis Factor” value in data set [1] is on record as “*”.

Consider `CCOCc1nc2c(N)nc(C)c(C)c2n1CCC1CCN(C(=O)Nc2cccc(SC)c2)CC1` [Example 64], for which the minimal effective concentration was 0.37 µM in the data set with interferon (α) and 1.11 µM in data set [1].

As for `CCCCc1nc2c(N)nc(C)c(C)c2n1CCCCNS(=O)(=O)c1ccc(F)cc1` (hydrate or solvate) [Example 3, N-[4-(4-Amino-2-butyl-6,7-dimethyl-1H-imidazo[4,5-c]pyridin-1-yl)butyl]-4-fluorobenzenesulfonamide Hydrate], the melting point lay in the range of 133.1 to 133.7 °C.

The molecule `CCOCc1nc2c(N)nc(C)c(C)c2n1CCCNC(=O)N1CCOCC1` [Example 14, N-{3-[4-amino-2-(ethoxymethyl)-6,7-dimethyl-1H-imidazo[4,5-c]pyridin-1-yl]propyl}morpholin-4-ylcarboxamide] gave a melting point of 140.5 to 142.2 °C.

With `CCOCc1nc2c(N)nc(C)cc2n1CCCCNC(=O)NC(C)C` [Example 36], the minimal effective concentration in the data set with interferon (α) is 1.11 µM; in data set [1], 30 µM.

Take `Cc1nc(N)c2ncn(CCCCNC(=O)Nc3ccc(N(C)C)cc3)c2c1C` [Example 24]: the values for the minimal effective concentration (in the data set on interferon (α); in data set [1]) were 10 µM and 30 µM, respectively.

Regarding `CCOCc1nc2c(N)nc(C)c(C)c2n1CCC1CCN(C(=S)NC(=O)c2ccco2)CC1` [Example 74, N-[(4-{2-[4-amino-2-(ethoxymethyl)-6,7-dimethyl-1H-imidazo[4,5-c]pyridin-1-yl]ethyl}piperidin-1-yl)carbonothioyl]-2-furamide], the minimal effective concentration in the data set with interferon (α) was found to be 0.37 µM; in data set [1], 1.11 µM.

Regarding `CCCCNC(=O)NCCCCn1c(COCC)nc2c(N)nc(C)cc21` [Example 38], the minimal effective concentration turned out to be 3.33 µM in the data set on interferon (α) and 30 µM in data set [1].

Turning to `CSc1cccc(NC(=O)NCCCCn2cnc3c(N)nc(C)c(C)c32)c1` [Example 25], in the data set on interferon (α), the “Lowest Effective Concentration Interferon” value was “*”. Moreover, the minimal effective concentration in data set [1] was found to be 3.33 µM.

Regarding `CCCCNC(=O)N1CCC(CCn2c(COCC)nc3c(N)nc(C)c(C)c32)CC1` [Example 56], the values for the minimal effective concentration (in the data set on interferon (α); in data set [1]) were 1.11 µM and 3.33 µM, respectively.

With `CCOCc1nc2c(N)nc(C)c(C)c2n1CCC1CCN(C(=O)Nc2cccc(C(C)=O)c2)CC1` [Example 62], the minimal effective concentration with interferon (α) was 0.37 µM; in data set [1], 1.11 µM.

Turning to `CCOCc1nc2c(N)nc(C)c(C)c2n1CCC1CCN(C(=O)NC2CCCCC2)CC1` [Example 58], the minimal effective concentration in the data set with interferon (α) worked out at 0.37 µM; in data set [1] it was 3.33 µM.

`CCOCc1nc2c(N)nc(C)c(C)c2n1CCC1CCN(C(=S)Nc2ccc(OC)cc2)CC1` [Example 73]: the minimal effective concentration in the data set with interferon (α) was 0.12 µM; in data set [1] it was 1.11 µM.

`CCCCc1nc2c(N)nc(C)c(C)c2n1CCCCNC(=S)Nc1ccccc1` (hydrate or solvate) [Example 5, N-[4-(4-Amino-2-butyl-6,7-dimethyl-1H-imidazo[4,5-c]pyridin-1-yl)butyl]-N′-phenylthiourea Hydrate]: the melting point fell in the range of 160 to 160.8 °C.

`CCOCc1nc2c(N)nc(C)cc2n1CCCCNC(=O)Nc1cccc(C(C)=O)c1` [Example 42]: the minimal effective concentration (with interferon (α); in data set [1]) was 10 µM in each case.

Consider `CCOCc1nc2c(N)nc(C)cc2n1CCCCNC(=S)Nc1ccccc1` [Example 50], for which the minimal effective concentration in the data set on interferon (α) worked out at 0.37 µM; in data set [1], 3.33 µM.

For the molecule `Cc1nc(N)c2ncn(CCCCNC(=O)NC3CCCCC3)c2c1C` [Example 20], the minimal effective concentration in the data set with interferon (α) amounted to 30 µM. Moreover, in data set [1], the “Lowest Effective Concentration Tumor Necrosis Factor” value is “*”.

Turning to `Cc1nc(N)c2ncn(CCCCNC(=O)NC(C)(C)C)c2c1C` [Example 17], the minimal effective concentration with interferon (α) worked out at 30 µM. For the same molecule, in data set [1], the “Lowest Effective Concentration Tumor Necrosis Factor” value was “*”.

As to `COc1ccc(NC(=S)NCCCCn2cnc3c(N)nc(C)c(C)c32)cc1` [Example 35], the results for the minimal effective concentration (in the data set on interferon (α); in data set [1]) were 3.33 µM and 30 µM, respectively.

In the case of `CCOCc1nc2c(N)nc(C)c(C)c2n1CCC1CCN(C(=O)Nc2cccc(OC)c2)CC1` [Example 61], the minimal effective concentration turned out to be 0.37 µM in the data set on interferon (α) and 1.11 µM in data set [1].

Turning to `Cc1ccc(S(=O)(=O)NC(=O)NCCCCn2cnc3c(N)nc(C)c(C)c32)cc1` [Example 30], in the data set on interferon (α), the “Lowest Effective Concentration Interferon” value is reported as “*”. Besides, the “Lowest Effective Concentration Tumor Necrosis Factor” value in data set [1] is listed as “*”.

As to `Cc1nc(N)c2ncn(CCCCNC(=O)NS(=O)(=O)c3ccc(Cl)cc3)c2c1C` [Example 31], in the data set on interferon (α), the “Lowest Effective Concentration Interferon” value is on record as “*”. Besides, the “Lowest Effective Concentration Tumor Necrosis Factor” value in data set [1] is given as “*”.

Consider `CNC(=S)NCCCCn1cnc2c(N)nc(C)c(C)c21` [Example 32], for which, in the data set on interferon (α), the “Lowest Effective Concentration Interferon” value is reported as “*”. For the same molecule, the “Lowest Effective Concentration Tumor Necrosis Factor” value in data set [1] is “*”.

As for `CCOCc1nc2c(N)nc(C)c(C)c2n1CCC1CCN(C(=O)N(C)c2ccccc2)CC1` [Example 68, 4-{2-[4-amino-2-(ethoxymethyl)-6,7-dimethyl-1H-imidazo[4,5-c]pyridin-1-yl]ethyl}-N-methyl-N-phenylpiperidine-1-carboxamide], the minimal effective concentration turned out to be 0.37 µM in the data set with interferon (α) and 1.11 µM in data set [1].

With `Cc1nc(N)c2ncn(CCCCNC(=O)N[C@@H]3C[C@H]3c3ccccc3)c2c1C` (relative stereo) [Example 28, N-[4-(4-amino-6,7-dimethyl-1H-imidazo[4,5-c]pyridin-1-yl)butyl]-N′-[(1R*,2S*)-2-phenylcyclopropyl]urea], in the data set on interferon (α), the “Lowest Effective Concentration Interferon” value is given as “*”. For the same molecule, the “Lowest Effective Concentration Tumor Necrosis Factor” value in data set [1] is recorded as “*”.

As to `CCOCc1nc2c(N)nc(C)cc2n1CCCCNC(=O)N[C@@H]1C[C@H]1c1ccccc1` (relative stereo) [Example 46, N-{4-[4-amino-2-(ethoxymethyl)-6-methyl-1H-imidazo[4,5-c]pyridin-1-yl]butyl}-N′-[(1R*,2S*)-2-phenylcyclopropyl]urea], the minimal effective concentration in the data set on interferon (α) is 3.33 µM; in data set [1] it was 10 µM.

In the case of `CCOCc1nc2c(N)nc(C)c(C)c2n1CCC1CCN(C(=S)NCCc2ccccc2)CC1` [Example 72], the figures for the minimal effective concentration (in the data set on interferon (α); in data set [1]) were 0.37 µM and 1.11 µM, respectively.
